US20100130408A1, “USE OF MODIFIED CYCLOSPORINS” (priority 2006, published 2010)

Columns and labels:
[1] = test system: HSCs; test: Analysis of apoptosis (TUNEL); format: cell-based, rat; conditions: 2 μM
Description: A. In vitro Cell culture: HSCs are isolated from the liver of male Wistar rats by sequential in situ perfusion with collagenase and digestion with pronase, followed by centrifugation in a double-layered (17%/11.5%) metrizamide solution (Sigma. Chemical, St. Louis, Mo.), as described in Kato, et al, J. Hepatol (1999) 31:91-99. HSCs are cultured in Dulbecco's modified Eagle's medium (DMEM) with 10% fetal calf serum (FCS). Experiments are performed on cells between the third and fourth serial passages. To measure […] matrix metalloproteinase (MMP-1) and tissue inhibitor of matrix metalloproteinase (TIMP-1), TWNT-4 cells which is a human cell line derived from HSCs as produced according to Shibata, et al, Cell Transplant (2003) 12:499-507 is used for evaluating the effects of Fasudil on MMP-1 and TIMP-1. TWNT-4 cells are cultured in DMEM with 10% FCS as reported previously (Id). NIM811 (Novartis Pharma AG, Basel, Switzerland) is dissolved in DMEM and added to cultures. […]
Analysis of Apoptosis: HSCs are maintained in either the presence or absence of NIM811 in serum-free conditions for 24 h. […] Cells are then stained with Hoechst 33342, and analyzed by the TUNEL method using an In Situ Cell Death Detection Kit (Roche) according to the manufacturer's instructions. […] At least 100 cells from three independent experiments and from three different cell preparations are counted for each condition.

[2] = test system: MAPKs Signaling Pathways; test: Western blot analysis for phospho- and nonphospho-MAPKs; format: cell-based, human
Description: Western blot analysis for phospho- and nonphospho-MAPKs: Western blot analysis is performed as described in Uchimura, et al, Hepatology (2001) 33:91099. HSCs are starved for 24 h, then treated with or without NIM811 for 2 h. Whole cell lysates containing 1×10^7 TWNT-4 cells are prepared in 100 μl SDS-PAGE sample buffer. Protein lysates are subjected to 12% SDS-PAGE, transferred to a polyvinylidene difluoride membrane (Millipore, Bedford, Mass.), and probed with the primary antibody for ERK1/2 MAPK, phospho-ERK1/2 MAPK (Thr202/Tyr204), JNK, phospho-JNK (Thr183/Tyr185), p38 MAPK, or phospho-p38 MAPK (Thr180/Tyr182) (New England Biolabs, Beverly, Mass.). Antibody binding is detected using peroxidase linked anti-rabbit IgG (Amersham Pharmacia Biotech, Piscataway, N.J.) as the secondary antibody. The blots are developed using ECL-plus (Amersham Pharmacia Biotech, Piscataway, N.J.) to visualize the antibodies. The levels of ERK1/2 MAPK, phosphorylated-ERK1/2 MAPK, JNK, phosphorylated-JNK, p38 MAPK, and phosphorylated-p38 MAPK are quantitated by densitometry using an optical scanner system. For comparison, the ratios of phosphorylated ERK1/2, JNK, and p38 MAPK to nonphosphorylated ERK1/2, JNK, and p38 MAPK, respectively, are calculated from the densitometric data.

[3] = test system: TWNT-4 cells; test: gene expression using real time RT-PCR; format: cell-based, human; conditions: 0.5 μM
Description: Analysis of gene expression using real time RT-PCR: Total RNA is prepared from TWNT-4 cells with Trizol reagent (Invitrogen, Carlsbad, Calif., USA), which are maintained in either the presence or absence of NIM811 in 10% FCS for 24 h. cDNA is synthesized from […] RNA with GeneAmp™ RNA PCR (Applied Biosystems, Branchburg, N.J., USA) using random hexamers. Real-time PCR is performed using LightCycler-FastStart DNA Master SYBR Green 1 (Roche, Tokyo, Japan) as described in Nakamuta, et al, Int J. Mol Med (2005) 16(4):631-635. A reaction mixture (20 μl) is used containing LightCycler-FastStart DNA Master SYBR Green 1, 4 mM MgCl2, 0.5 μM of the upstream and downstream PCR primers, and […] of the first strand cDNA as a template. To control for variations in the reactions, all PCRs are normalized against glyceraldehyde-3-phosphate dehydrogenase (GAPDH) expression. The primers which may be used are as follows: 5′-[…]-3′ (forward primer) (SEQ ID NO. 1) and 5′-[…]-3′ (reverse primer)(SEQ ID NO. 2) for human type I collagen a1 chain (GenBank™ accession number NM-000088) (21); 5′-[…]-3′ (forward primer)(SEQ ID NO. 3) and 5′-[…]-3′ (reverse primer) for human a-SMA (GenBank™ accession number […]); 5′-[…]-3′ (forward primer) and 5′-[…]-3′ (reverse primer) for MMP-1 (GenBank™ accession number NM002421); 5′-[…]-3′ (forward primer) and 5′-[…]-3′ (reverse primer)(SEQ ID NO. 4) for TIMP-1 (GenBank™ accession number NM003254); 5′-[…]-3′ (forward primer)(SEQ ID NO. 5) and 5′-[…]-3′ (reverse primer)(SEQ ID NO. 6) for Smad7 (Quan, et al, J Biol Chem (2005) 80:8079-8085); 5′-[…]-3′ (forward primer)(SEQ ID NO. 7) and 5′-[…]-3′ (reverse primer)(SEQ ID NO. 8) for transforming growth factor □ receptor I (TGFβRI) (Woszcyk et al, Med Sci Monit (2004) 10:C33-C37)).

[4] = test system: TWNT-4 cells; test: MMP-1, TIMP-1, and collagenase assay; format: cell-based, human
Description: A. In vitro Cell culture: HSCs are isolated from the liver of male Wistar rats by sequential in situ perfusion with collagenase and digestion with pronase, followed by centrifugation in a double-layered (17%/11.5%) metrizamide solution (Sigma. Chemical, St. Louis, Mo.), as described in Kato, et al, J. Hepatol (1999) 31:91-99. HSCs are cultured in Dulbecco's modified Eagle's medium (DMEM) with 10% fetal calf serum (FCS). Experiments are performed on cells between the third and fourth serial passages. To measure […] matrix metalloproteinase (MMP-1) and tissue inhibitor of matrix metalloproteinase (TIMP-1), TWNT-4 cells which is a human cell line derived from HSCs as produced according to Shibata, et al, Cell Transplant (2003) 12:499-507 is used for evaluating the effects of Fasudil on MMP-1 and TIMP-1. TWNT-4 cells are cultured in DMEM with 10% FCS as reported previously (Id). NIM811 (Novartis Pharma AG, Basel, Switzerland) is dissolved in DMEM and added to cultures. Cell viability of HSCs is more than 90% under serum-free conditions for 24 h in the presence of 2 μM NIM811.
MMP-1, TIMP-1, and collagenase assay: Cultured TWNT-4 cells are incubated in serum-free medium in the presence or absence of NIM811 for 24 h. MMP-1 and TIMP-1 production are determined in culture media by ELISA with a Biotrak ELISA system for human MMP-1 (Amersham Biosciences, Piscataway, N.J., USA) and an hTIMP-1 kit (Daiichi Fine Chemical Co. Ltd., Toyama, Japan), respectively following procedures described in Fukushima, et al, Liver Int (2005) 25:829-838. Active MMP-1 and pro-MMP-1 in culture media are determined with a MMP-1 Biotrak Activity Assay System (Amersham).

[5] = test system: cultured mouse hepatocytes; conditions: Kon et al, Hepatology (2004); cited from earlier work

## C/C=C/C[C@@H](C)[C@@H](O)[C@H]1C(=O)N[C@@H](CC)C(=O)N(C)CC(=O)N(C)[C@@H]([C@@H](C)CC)C(=O)N[C@@H](C(C)C)C(=O)N(C)[C@@H](CC(C)C)C(=O)N[C@@H](C)C(=O)N[C@H](C)C(=O)N(C)[C@@H](CC(C)C)C(=O)N(C)[C@@H](CC(C)C)C(=O)N(C)[C@@H](C(C)C)C(=O)N1C [NIM811]
[1]
  apoptosis: no apoptosis is observed
[2]
  phosphorylation of ERK1/2: does not suppress ERK1/2
[2]; 0.5 μM
  enhancement of phosphorylation of JNK: ~3.6 fold
  enhancement of phosphorylation of p38 MAPK: ~2.3 fold
[3]
  enhancement of expression of Smad7: ~2 fold
  expression of TIMP-1 (mRNA): did not change
  increase of expression of MMP-1 (mRNA): ~2 fold
  reduction of expression of type I collagen (mRNA): roughly 30%
  suppression of TGFβRI expression: ~50%
[4]; 0.5 μM
  increase in collagenase activity (active MMP-1): roughly 2 fold
[4]; 2.0 μM
  TIMP-1 production: does not significantly reduce TIMP-1 production
[4]; increasing concentrations
  collagenase activity (active MMP-1) and pro-MMP-1 levels: concentration-dependent increase
[5]
  acetaminophen-induced necrosis and apoptosis: prevented acetaminophen-induced necrosis and apoptosis
